Experimental data published in patent publication US20100056508A1, “AMINE DERIVATIVES AND THEIR USE IN BETA-2-ADRENORECEPTOR MEDIATED DISEASES” (ASTRAZENECA AB, priority 2006, published 2010).
Counter-ions that a name gives are not always drawn.

Target: T1, recombinant human α1D receptor (Homo sapiens, UniProt P25100)
T1 construct: expressed in transfected cells; host or cells: human embryonic kidney 293 cells (HEK93 [sic]), membranes
T1 sequence (P25100 1-572): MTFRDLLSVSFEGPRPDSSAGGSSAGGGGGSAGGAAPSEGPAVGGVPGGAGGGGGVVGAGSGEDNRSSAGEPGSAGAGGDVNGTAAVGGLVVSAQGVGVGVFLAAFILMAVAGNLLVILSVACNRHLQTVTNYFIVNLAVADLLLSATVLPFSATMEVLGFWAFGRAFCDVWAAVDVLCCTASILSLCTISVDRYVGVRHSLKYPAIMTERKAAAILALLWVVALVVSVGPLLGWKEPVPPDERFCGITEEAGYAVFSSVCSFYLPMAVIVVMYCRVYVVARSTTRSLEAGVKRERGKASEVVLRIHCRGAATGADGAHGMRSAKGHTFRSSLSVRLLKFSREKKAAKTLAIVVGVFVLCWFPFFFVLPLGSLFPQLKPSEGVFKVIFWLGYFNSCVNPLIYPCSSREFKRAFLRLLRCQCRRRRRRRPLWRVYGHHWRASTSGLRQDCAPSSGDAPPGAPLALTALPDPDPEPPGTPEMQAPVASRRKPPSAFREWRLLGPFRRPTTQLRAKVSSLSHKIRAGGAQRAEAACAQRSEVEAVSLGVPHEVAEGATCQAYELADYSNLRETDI
Assay: Adrenergic α1D selectivity assay, [3H]-prazosin binding to membranes
Settings: inhibition of [3H]-prazosin binding, HEK cell membranes, read-out: α1 bind pIC50 (converted)
Summary of the method: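 Competition binding on HEK293 membranes with recombinant human α1D receptor, 0.3 nM [3H]-prazosin, 50 mM HEPES/1 mM EDTA pH 7.4, 2 h at room temperature; filtration and scintillation counting. Non-specific binding defined with 10 μM BMY7378. pIC50 from four-parameter logistic fit of specific-binding inhibition.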

| IC50 [nM] | SMILES |
| --- | --- |
| 200 | O=C1COc2c(CCNCCN(C(=O)CCNCCc3ccc(F)c(F)c3)C3CCCCCC3)ccc(O)c2N1 [Example 67, N-Cycloheptyl-3-(3,4-difluorophenethylamino)-N-(2-(2-(5-hydroxy-3-oxo-3,4-dihydro-2H-benzo[b][1,4]oxazin-8-yl)ethylamino)ethyl)propanamide bis(trifluoroacetate)] |
| 794 | O=C(CCOCCc1ccccc1)N(CCNCCc1ccc(O)c2[nH]c(=O)ccc12)C1CCCCC1 [Example 2, N-Cyclohexyl-N-(2-(2-(8-hydroxy-2-oxo-1,2-dihydroquinolin-5-yl)ethylamino)ethyl)-3-phenethoxypropanamide] |
| 398 | O=C1COc2c(CCNCCN(C(=O)CCNCCc3cccc(F)c3F)C3CCCCC3)ccc(O)c2N1 [Example 36, N-Cyclohexyl-3-(2,3-difluorophenethylamino)-N-(2-(2-(5-hydroxy-3-oxo-3,4-dihydro-2H-benzo[b][1,4]oxazin-8-yl)ethylamino)ethyl)propanamide bis(trifluoroacetate)] |
| 63.1 | O=C1COc2c(CCNCCN(C(=O)CCNCCc3cc(F)ccc3F)C3CCCCCC3)ccc(O)c2N1 [Example 64, N-Cycloheptyl-3-(2,5-difluorophenethylamino)-N-(2-(2-(5-hydroxy-3-oxo-3,4-dihydro-2H-benzo[b][1,4]oxazin-8-yl)ethylamino)ethyl)propanamide bis(trifluoroacetate)] |
| 158 | O=C1COc2c(CCNCCN(C(=O)CCNCCc3ccc(F)c(Cl)c3)C3CCCCC3)ccc(O)c2N1 [Example 37, 3-(3-Chloro-4-fluorophenethylamino)-N-cyclohexyl-N-(2-(2-(5-hydroxy-3-oxo-3,4-dihydro-2H-benzo[b][1,4]oxazin-8-yl)ethylamino)ethyl)propanamide bis(trifluoroacetate)] |
| 200 | O=C1COc2c(CCNCCN(C(=O)CCNCCc3cccc(F)c3)C3CCCCCC3)ccc(O)c2N1 [Example 69, N-Cycloheptyl-3-(3-fluorophenethylamino)-N-(2-(2-(5-hydroxy-3-oxo-3,4-dihydro-2H-benzo[b][1,4]oxazin-8-yl)ethylamino)ethyl)propanamide bis(trifluoroacetate)] |
| 501 | O=C1COc2c(CCNCCN(C(=O)CCNCCc3cccc(Cl)c3F)C3CCCCC3)ccc(O)c2N1 [Example 39, 3-(3-Chloro-2-fluorophenethylamino)-N-cyclohexyl-N-(2-(2-(5-hydroxy-3-oxo-3,4-dihydro-2H-benzo[b][1,4]oxazin-8-yl)ethylamino)ethyl)propanamide bis(trifluoroacetate)] |
| 251 | O=C(CCNCCc1cc(F)ccc1F)N(CCNCCc1ccc(O)c2[nH]c(=O)ccc12)C1CCCCC1 [Example 17, N-Cyclohexyl-3-(2,5-difluorophenethylamino)-N-(2-(2-(8-hydroxy-2-oxo-1,2-dihydroquinolin-5-yl)ethylamino)ethyl)propanamide bis(trifluoroacetate)] |
| 39.8 | Cc1cc(CCNCCC(=O)N(CCNCCc2ccc(O)c3c2OCC(=O)N3)C2CCCCCC2)ccc1F [Example 62, N-Cycloheptyl-3-(4-fluoro-3-methylphenethylamino)-N-(2-(2-(5-hydroxy-3-oxo-3,4-dihydro-2H-benzo[b][1,4]oxazin-8-yl)ethylamino)ethyl)propanamide bis(trifluoroacetate)] |
| 398 | O=C1COc2c(CCNCCN(C(=O)CCNCCc3cc(F)cc(F)c3)C3CCCCC3)ccc(O)c2N1 [Example 35, N-Cyclohexyl-3-(3,5-difluorophenethylamino)-N-(2-(2-(5-hydroxy-3-oxo-3,4-dihydro-2H-benzo[b][1,4]oxazin-8-yl)ethylamino)ethyl)propanamide bis(trifluoroacetate)] |

Second part, the molecule before the results:

| SMILES | IC50 [nM] |
| --- | --- |
| O=C1COc2c(CCNCCN(C(=O)CCOCCc3cccc(Cl)c3)C3CCCCC3)ccc(O)c2N1 [Example 77, 3-(3-Chlorophenethoxy)-N-cyclohexyl-N-(2-(2-(5-hydroxy-3-oxo-3,4-dihydro-2H-benzo[b][1,4]oxazin-8-yl)ethylamino)ethyl)propanamide trifluoroacetate] | 794 |
| O=C1COc2c(CCNCCN(C(=O)CCNCCc3ccc(Cl)c(Cl)c3)C3CCCCC3)ccc(O)c2N1 [Example 30, N-Cyclohexyl-3-(3,4-dichlorophenethylamino)-N-(2-(2-(5-hydroxy-3-oxo-3,4-dihydro-2H-benzo[b][1,4]oxazin-8-yl)ethylamino)ethyl)propanamide bis(trifluoroacetate)] | 251 |
| O=C(CCNCCc1ccccc1)N(CCNCCc1ccc(O)c(O)c1)C1CCCCC1 [Example 22, N-Cyclohexyl-N-(2-(3,4-dihydroxyphenethylamino)ethyl)-3-(phenethylamino)propanamide bis(trifluoroacetate)] | 200 |
| O=C1COc2c(CCNCCN(C(=O)CCOCCc3ccccc3F)C3CCCCC3)ccc(O)c2N1 [Example 76, N-Cyclohexyl-3-(2-fluorophenethoxy)-N-(2-(2-(5-hydroxy-3-oxo-3,4-dihydro-2H-benzo[b][1,4]oxazin-8-yl)ethylamino)ethyl)propanamide trifluoroacetate] | 1000 |
| CC[C@@H](C)N(CCNCCc1ccc(O)c2[nH]c(=O)ccc12)C(=O)CCOCCc1ccccc1.Cl [Example 79, (R)—N-sec-Butyl-N-(2-(2-(8-hydroxy-2-oxo-1,2-dihydroquinolin-5-yl)ethylamino)ethyl)-3-phenethoxypropanamide hydrochloride] | 631 |
| CCCC[C@@H](C)N(CCNCCc1ccc(O)c2c1OCC(=O)N2)C(=O)CCNCCc1cc(C)ccc1F [Example 56, (R)-3-(2-Fluoro-5-methylphenethylamino)-N-(hexan-2-yl)-N-(2-(2-(5-hydroxy-3-oxo-3,4-dihydro-2H-benzo[b][1,4]oxazin-8-yl)ethylamino)ethyl)propanamide bis(trifluoroacetate)] | 31.6 |
| O=C1COc2c(CCNCCN(C(=O)CCNCCc3ccc(Cl)c(Cl)c3)C3CCCCCC3)ccc(O)c2N1 [Example 26, N-Cycloheptyl-3-(3,4-dichlorophenethylamino)-N-(2-(2-(5-hydroxy-3-oxo-3,4-dihydro-2H-benzo[b][1,4]oxazin-8-yl)ethylamino)ethyl)propanamide bis(trifluoroacetate)] | 79.4 |
| O=CNc1cc(CCNCCN(C(=O)CCNCCc2ccccc2)C2CCCCC2)ccc1O [Example 21, N-Cyclohexyl-N-(2-(3-formamido-4-hydroxyphenethylamino)ethyl)-3-(phenethylamino)propanamide] | 79.4 |
